Earlier results in patent US12690594B2, “Apparatus and methods for dissolving carbon dioxide in water” (ECO-OXYGEN TECHNOLOGIES, LLC, priority 2023, dated 2026).

Test system: dreissenid mussel
Conditions: laboratory and field studies; no concentration or exposure time printed

In the case of `O=C=O` [carbon dioxide], the mortality is listed as “successfully cause mortality” and the “rate of veliger byssogenesis (settlement and colonization)” value is listed as “reduction in the rate of veliger byssogenesis”.
